Laboratory results: patent publication US20120165340A1, “PTEN PHOSPHORYLATION-DRIVEN RESISTANCE TO CANCER TREATMENT AND ALTERED PATIENT PROGNOSIS” (Ludwing Institute for Cancer Research Ltd., priority 2009, published 2012)
Non-standard residues stand in square brackets, D forms with d. No end group written: not given here. pY = N[C@@H](Cc1ccc(OP(=O)(O)O)cc1)C(=O)O

Columns and labels:
[1] = system: Ink4a/Arf-/- astrocytes; assay: Drug sensitivity assay, cell viability by WST-1; assay type: cell-based, mouse; conditions: 72 hours
Description: Mouse Astrocytes. Ink4a/Arf^−/−1 and Pten^loxP/loxP 2 mice were obtained from the NCI mouse depository and intercrossed to generate described genotypes. Primary astrocytes were isolated from the neocortex of 4 day old pups, using standard astrocyte isolation culture conditions (Bachoo et al 2002). Conditional deletion of Pten^loxP/loxP was accomplished by infecting astrocyte cultures with adenovirus expressing Cre recombinase under the CMV promoter (Gene TransferVector Core, University of Iowa, Iowa City, Iowa). Effective Pten deletion was verified by western blot. EGFRvIII was expressed in these cells by retroviral infection as described previously (Bachoo et al 2002). (Reference: Bachoo, R. M. et al. Epidermal growth factor receptor and Ink4a/Arf: convergent mechanisms governing terminal differentiation and transformation along the neural stem cell to astrocyte axis. Cancer Cell 1, 269-77 (2002)).
Drug sensitivity assays. Cells were plated at 1000 cells/well in 96 well plates and allowed to adhere for four hours prior to addition of Erlotinib and/or Dasatinib or solvent (DMSO) control. Cells were maintained in 5% serum during drug treatments and cell viability was measured using WST-1 assay (Clontech) following 72 hours exposure to drug.
Statistical analysis. For quantitation and analysis of immunohistochemistry data, see above. For analysis of drug sensitivity data, 2-way ANOVA was performed using the KaleidaGraph program (Synergy Software).

[2] = target: Lyn (Homo sapiens, UniProt P07948); conditions: cited from earlier work
Sequence of Lyn (P07948 whole entry, species assumed): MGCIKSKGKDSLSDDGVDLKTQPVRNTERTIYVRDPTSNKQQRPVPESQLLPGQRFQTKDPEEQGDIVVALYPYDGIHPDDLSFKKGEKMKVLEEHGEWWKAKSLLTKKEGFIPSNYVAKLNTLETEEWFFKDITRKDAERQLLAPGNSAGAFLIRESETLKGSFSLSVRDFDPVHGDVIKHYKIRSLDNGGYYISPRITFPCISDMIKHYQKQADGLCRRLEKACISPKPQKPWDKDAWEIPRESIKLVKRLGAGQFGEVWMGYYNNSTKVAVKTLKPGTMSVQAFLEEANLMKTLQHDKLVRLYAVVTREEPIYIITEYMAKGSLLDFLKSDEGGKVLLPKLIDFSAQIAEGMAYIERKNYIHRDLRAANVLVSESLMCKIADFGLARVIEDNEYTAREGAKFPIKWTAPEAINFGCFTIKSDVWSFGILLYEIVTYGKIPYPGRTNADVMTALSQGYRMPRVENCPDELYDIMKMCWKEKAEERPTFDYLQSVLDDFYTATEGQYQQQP

[3] = system: Ph+ leukemia cells which express wt and mutated BCR-ABL; conditions: mouse, in vivo; cited from earlier work
[4] = in vivo; cited from earlier work
[5] = system: GBM39 cells; assay: PTEN Y240 phosphorylation in GBM39 glioma cells, western blot; assay type: cell-based, human; conditions: pervanadate 100 μM for 15 minutes
Experimental: Mice were sacrificed by CO2 inhalation followed by cervical dislocation, according to institutional guidelines. Subcutaneous tumors were removed and tumor tissue was minced into 0.1-0.5 mm^3 chunks in a 60 mm dish with 5 ml of freshly prepared, filter-sterilized digestion solution (12,500 units of Collagenase Type 2, 12,500 units of Collagenase Type 4, 20 mL DMEM (Serum Free), 20 uL of 1 mg/mL DNAase I). Tissue was placed into a sterile 15 ml specimen cup with an additional 10 ml of digestion solution and shaken (150 rpm) at 37 C for 3 hours before filtration through a 70/40 um filter. After centrifugation at 1000 rpm for 3 minutes, the supernatant was discarded. The pellet was resuspended in 1 ml of ACK buffer (150 mM NH4Cl, 10 mM KHCO3, 0.1 mM Na2EDTA, adjusted to pH 7.2-7.4 with 1N HCl) and incubated at room temperature for 3 minutes to lyse red blood cells. Cells were pelleted by centrifugation at 1000 rpm for 3 minutes and resuspended in culture medium (DMEM containing 10% fetal bovine serum plus L-glutamine and penicillin/streptomycin). Cell viability was determined by trypan blue exclusion and cells were plated at a density of approx 10^6 cells per 100 mm culture dish. Cells were maintained under standard cell culture conditions (37 C, 5% CO2 in a humidified incubator) and all experiments were conducted in cells prior to p4. […]

[6] = system: anti-pY240 PTEN antibody; assay: Peptide competition of anti-pY240 immunostaining; assay type: binding; conditions: tissue sections from human GBM with wild type PTEN
Description: Immunohistochemistry: Tissue sections were cut from blocks of formalin-fixed paraffin tumor tissue from glioblastoma patients treated at UCLA with the EGFR kinase inhibitors (erlotinib or gefitinib), including a subset of patients previously described^2. Tumor specimens were obtained according to a protocol approved by the institutional review board of UCLA. Pre-treatment tumor tissue was examined for 19 patients; post-treatment tissue was examined from 8 patients, including 7 patients for whom pre- and post-treatment tissue was available. […]

C#Cc1cccc(Nc2ncnc3cc(OCCOC)c(OCCOC)cc23)c1 [Erlotinib]
sensitivity to Erlotinib (cell viability) ([1]; EGFRvIII PTEN-null astrocytes reconstituted with PTEN Y240F mutant): significantly sensitized these cells to sub-micromolar doses | sensitivity to Erlotinib (cell viability) ([1]; EGFRvIII astrocytes reconstituted with WT PTEN): resistant to clinically achievable doses | sensitivity to Erlotinib (cell viability) ([1]; PTEN-null astrocytes expressing EGFRvIII): resistant to clinically achievable doses | sensitivity to Erlotinib (cell viability) ([1]; astrocytes expressing WT PTEN, with versus without EGFRvIII): sensitizes astrocytes expressing WT PTEN to Erlotinib

Cc1ccc(NC(=O)c2ccc(CN3CC[C@H](N(C)C)C3)c(C(F)(F)F)c2)cc1Nc1nccc(-c2cncnc2)n1 [INNO-406]
Lyn inhibition versus phosphorylation of Src, Blk or Yes [2]: inhibits Lyn without affecting the phosphorylation of Src-family kinases Src, Blk or Yes | growth of Ph+ leukemia cells in murine CNS [3]: does inhibit growth | concentrations in the CNS relative to those in plasma [4]: about 10%

pervanadate
induction of Y240 phosphorylation [5]: substantial increase in Y240 phosphorylation

FMY[243.03]FEFPQPLPVC[160.03]GDIK: Phosphorylated PTEN Y240 peptide that competes away antibody staining (FM[pY]FEFPQPLPVCGDIK; not fully specified (residue 13); printed as FMY[243.03]FEFPQPLPVC[160.03]GDIK; also: modified cysteine C13 (C[160.03]))
competition of antibody staining in immunostaining [6]: competes away antibody staining
